From patent US12486284B2, “Ubiquitin-specific protease inhibitor and preparation method therefor and use thereof” (CHASER THERAPEUTICS, INC., priority 2019, dated 2025)
Like-named read-outs stand apart in the source and are kept apart here.

Tests used:
[1] = biological target: T1, USP25 (Homo sapiens, UniProt Q9UHP3); assay: USP25 activity measured using ubiquitin-rhodamine 110 method; type: biochemical; conditions: for IC50: purified USP25 15 nM, ubiquitin-rhodamine 110 125 nM, 30 min preincubation; for IC50(F)/IC50(E) USP25: ratio of IC50 of related 3-NH2 compound (F) to IC50 of 3-NHMe compound disclosed herein (E)
T1 construct: purchased R&D Systems
T1 sequence (Q9UHP3 1-1055): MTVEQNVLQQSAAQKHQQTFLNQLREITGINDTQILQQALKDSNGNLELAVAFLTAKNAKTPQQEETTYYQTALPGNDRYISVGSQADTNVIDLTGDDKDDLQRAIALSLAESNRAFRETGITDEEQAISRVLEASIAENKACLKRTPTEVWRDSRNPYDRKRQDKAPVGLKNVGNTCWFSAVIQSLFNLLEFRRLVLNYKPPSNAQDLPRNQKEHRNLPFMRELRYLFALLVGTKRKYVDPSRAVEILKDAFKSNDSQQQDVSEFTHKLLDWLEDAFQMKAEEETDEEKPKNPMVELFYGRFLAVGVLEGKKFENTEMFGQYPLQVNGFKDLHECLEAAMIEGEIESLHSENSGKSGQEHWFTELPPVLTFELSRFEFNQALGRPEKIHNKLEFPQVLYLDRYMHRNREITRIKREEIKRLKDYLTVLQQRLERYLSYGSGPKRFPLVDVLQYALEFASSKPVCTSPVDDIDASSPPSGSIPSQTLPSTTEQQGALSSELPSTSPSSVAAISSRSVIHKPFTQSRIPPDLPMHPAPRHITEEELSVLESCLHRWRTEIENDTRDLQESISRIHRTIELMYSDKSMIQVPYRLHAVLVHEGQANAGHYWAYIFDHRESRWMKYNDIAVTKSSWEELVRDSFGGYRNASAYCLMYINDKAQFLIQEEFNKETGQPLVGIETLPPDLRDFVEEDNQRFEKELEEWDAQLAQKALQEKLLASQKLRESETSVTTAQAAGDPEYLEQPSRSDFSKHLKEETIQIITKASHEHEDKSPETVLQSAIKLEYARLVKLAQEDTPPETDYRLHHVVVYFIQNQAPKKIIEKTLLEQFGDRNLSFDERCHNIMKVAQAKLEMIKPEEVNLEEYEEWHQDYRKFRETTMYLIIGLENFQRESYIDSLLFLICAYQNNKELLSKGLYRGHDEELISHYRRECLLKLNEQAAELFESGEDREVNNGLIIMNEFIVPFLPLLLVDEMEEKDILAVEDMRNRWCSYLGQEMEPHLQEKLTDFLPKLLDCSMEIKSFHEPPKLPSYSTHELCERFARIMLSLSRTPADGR
Experimental: USP25 activity was measured using ubiquitin-rhodamine 110 method.
(§1) Purified USP25 and the ubiquitin-rhodamine 110 substrate used for measuring DUBs activity were both from R&D Systems. Test compounds were first dissolved in DMSO to prepare a 10 mM stock solution, and then the stock solution was diluted with a buffer solution [containing 20 mM Tris-HCl (pH 8.0), 2 mM CaCl2), 3 mM BME, 0.01% Prionix, 0.01% Triton X-100] to the desired concentration (with DMSO content less than or equal to 0.5%). The dilution was mixed well with USP25 (final concentration 15 nM) in a 96-well plate and incubated at room temperature for 30 min, and then added with the substrate (ubiquitin-rhodamine 110) to 125 nM. The final volume of the whole reaction system was 20 μL. The released fluorescence (excitation wavelength 485 nm, emission wavelength 535 nm) was detected immediately on a microplate reader after the addition of the substrate, and the inhibitory rate of the test compound against USP25 was calculated according to the following formula: Inhibition %=1−[(test compound+fluorescence value of substrate−fluorescence value of test compound (no substrate))/mean fluorescence value of DMSO control group−fluorescence value of test compound (no substrate)]
As in Example 11, according to the inhibitory rates of the test compound against USP25 under different concentrations, IC50 was calculated.

[2] = biological target: T2, USP28 (Homo sapiens, UniProt Q96RU2); assay: USP28 activity measured using ubiquitin-rhodamine 110 method; type: biochemical; conditions: for IC50: purified USP28 4 nM, ubiquitin-rhodamine 110 125 nM, 30 min preincubation; for IC50(F)/IC50(E) USP28: ratio of IC50 of related 3-NH2 compound (F) to IC50 of 3-NHMe compound disclosed herein (E)
T2 construct: purchased R&D Systems
T2 sequence (Q96RU2 1-1077): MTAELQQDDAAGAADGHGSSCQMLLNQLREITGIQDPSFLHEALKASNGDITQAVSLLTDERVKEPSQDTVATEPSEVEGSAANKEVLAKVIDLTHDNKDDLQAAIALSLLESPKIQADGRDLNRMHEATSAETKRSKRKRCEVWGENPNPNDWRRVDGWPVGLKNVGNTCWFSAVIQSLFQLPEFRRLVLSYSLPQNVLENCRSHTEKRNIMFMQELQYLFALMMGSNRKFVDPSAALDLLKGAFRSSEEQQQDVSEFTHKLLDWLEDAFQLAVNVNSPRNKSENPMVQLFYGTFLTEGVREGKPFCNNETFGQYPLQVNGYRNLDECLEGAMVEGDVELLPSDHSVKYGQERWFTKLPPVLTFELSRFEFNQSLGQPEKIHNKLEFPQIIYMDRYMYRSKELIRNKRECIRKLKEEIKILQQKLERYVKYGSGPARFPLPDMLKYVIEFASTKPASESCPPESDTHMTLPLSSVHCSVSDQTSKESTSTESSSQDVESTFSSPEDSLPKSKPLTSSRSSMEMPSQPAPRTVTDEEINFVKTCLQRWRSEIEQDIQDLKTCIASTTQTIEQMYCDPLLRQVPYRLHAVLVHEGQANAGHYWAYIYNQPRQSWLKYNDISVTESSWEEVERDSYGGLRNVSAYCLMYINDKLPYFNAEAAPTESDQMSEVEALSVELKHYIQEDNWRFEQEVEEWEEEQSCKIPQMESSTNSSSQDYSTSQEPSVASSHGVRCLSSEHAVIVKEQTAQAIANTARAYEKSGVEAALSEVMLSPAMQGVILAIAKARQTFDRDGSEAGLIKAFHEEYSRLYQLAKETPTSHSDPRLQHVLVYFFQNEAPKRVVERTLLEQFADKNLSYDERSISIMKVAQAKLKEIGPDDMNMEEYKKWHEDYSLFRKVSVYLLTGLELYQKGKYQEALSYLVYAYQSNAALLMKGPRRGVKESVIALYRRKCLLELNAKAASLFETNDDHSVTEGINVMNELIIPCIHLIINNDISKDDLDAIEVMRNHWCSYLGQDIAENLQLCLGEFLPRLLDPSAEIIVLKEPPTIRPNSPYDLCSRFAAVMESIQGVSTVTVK
Experimental: USP28 activity was measured using ubiquitin-rhodamine 110 method.
as §1, with “USP28” for “USP25”, “4” for “15”, “substrate. The” for “substrate, and the”
According to the inhibitory rates of the test compound against USP28 under different concentrations, IC50 was calculated.

[3] = read-out: Inhibitory activity against USP25 (IC50)
[4] = Inhibitory activity against USP28 (IC50)
[5] = read-out: Inhibitory activity against USP28 (IC50)
[6] = Inhibitory activity against USP25 (IC50)

Row | SMILES | IC50 [1, 3] [µM] | IC50 [2, 4] [µM] | IC50 [2, 5] [µM] | IC50 [1, 6] [µM] | IC50(F)/IC50(E) USP25 [1] | IC50(F)/IC50(E) USP28 [2]
1 | CNc1c(C(=O)NC2COc3cc(N4CC5CCC(C4)N5)ccc3C2)sc2nc(C)cnc12 (single isomer, unassigned) [Compound I-87] | 0.1 to 1 | < 0.1 | – | – | – | –
2 | CNc1c(C(=O)NC2COc3cc(N4CC5CCC(C4)N5)ccc3C2)sc2nc(C)cnc12 (single isomer, unassigned) [Compound I-88] | 1 to 5 | – | 1 to 5 | – | – | –
3 | CNc1c(C(=O)NCCc2ccc(N3C[C@H]4CC[C@@H](C3)N4)cc2)sc2nc(C)ccc12 [Compound I-1, N-4-(3,8-diazabicyclo[3.2.1]octan-3-yl)phenethyl-6-methyl-3-methylaminothiophene[2,3-b]pyridine-2-carboxamide] | – | < 0.1 | – | < 0.1 | >20 | 18.75
4 | CNc1c(C(=O)NCCc2ccc(N3CCNCC3)cc2)sc2nc(C)ccc12 [Compound I-2] | 0.1 to 1 | – | 0.1 to 1 | – | – | –
5 | CNc1c(C(=O)NCCc2ccc(C3CCNCC3)cc2)sc2nc(C)ccc12 [Compound I-3] | 0.1 to 1 | – | < 0.1 | – | – | –
6 | CNc1c(C(=O)NCCc2ccc(C3CC4CCC(C3)N4)cc2)sc2nc(C)ccc12 (stereo not shown) [Compound I-4] | – | < 0.1 | – | < 0.1 | – | –
7 | CNc1c(C(=O)NCCc2ccc(C3C4CCC3CNC4)cc2)sc2nc(C)ccc12 (stereo not shown) [Compound I-5] | < 0.1 | – | < 0.1 | – | – | –
8 | CNc1c(C(=O)NCCc2ccc(N3C4CCC3CNC4)cc2)sc2nc(C)ccc12 [Compound I-6] | – | < 0.1 | – | < 0.1 | – | –
9 | CNc1c(C(=O)NCCc2ccc(C3CC4CC3CN4)cc2)sc2nc(C)ccc12 (stereo not shown) [Compound I-7] | 0.1 to 1 | – | < 0.1 | – | – | –
10 | CNc1c(C(=O)NCCc2ccc(N3CC4CC3CN4)cc2)sc2nc(C)ccc12 (stereo not shown) [Compound I-8] | < 0.1 | – | < 0.1 | – | – | –
11 | CNc1c(C(=O)NCCc2ccc(N3C[C@H]4CC[C@@H](C3)N4)cc2)sc2ncccc12 [Compound I-9] | 0.1 to 1 | < 0.1 | – | – | >10 | 9.2
12 | CCc1ccc2c(NC)c(C(=O)NCCc3ccc(N4C[C@H]5CC[C@@H](C4)N5)cc3)sc2n1 [Compound I-10] | 1 to 5 | < 0.1 | – | – | – | –
13 | CCCc1ccc2c(NC)c(C(=O)NCCc3ccc(N4C[C@H]5CC[C@@H](C4)N5)cc3)sc2n1 [Compound I-11] | > 10 | < 0.1 | – | – | – | –
14 | CNc1c(C(=O)NCCc2ccc(N3C[C@H]4CC[C@@H](C3)N4)cc2)sc2nc(C(C)C)ccc12 [Compound I-12] | 5 to 10 | < 0.1 | – | – | – | –
15 | CCCCc1ccc2c(NC)c(C(=O)NCCc3ccc(N4C[C@H]5CC[C@@H](C4)N5)cc3)sc2n1 [Compound I-13] | > 10 | < 0.1 | – | – | – | –
16 | CNc1c(C(=O)NCCc2ccc(N3C[C@H]4CC[C@@H](C3)N4)cc2)sc2nc(CC(C)C)ccc12 [Compound I-14] | > 10 | < 0.1 | – | – | – | –
17 | CNc1c(C(=O)NCCc2ccc(N3C[C@H]4CC[C@@H](C3)N4)cc2)sc2nc(C3CC3)ccc12 [Compound I-15] | 1 to 5 | < 0.1 | – | – | – | –
18 | CNc1c(C(=O)NCCc2ccc(N3C[C@H]4CC[C@@H](C3)N4)cc2)sc2nc(C(F)(F)F)ccc12 [Compound I-16] | 1 to 5 | – | 0.1 to 1 | – | – | –
19 | CNc1c(C(=O)NCCc2ccc(N3C[C@H]4CC[C@@H](C3)N4)cc2)sc2nc(OC)ccc12 [Compound I-17] | 0.1 to 1 | – | 0.1 to 1 | – | – | –
20 | CNc1c(C(=O)NCCc2ccc(N3C[C@H]4CC[C@@H](C3)N4)cc2)sc2ncc(F)cc12 [Compound I-18] | > 10 | – | 0.1 to 1 | – | – | –
21 | CNc1c(C(=O)NCCc2ccc(N3C[C@H]4CC[C@@H](C3)N4)cc2)sc2ncc(C)cc12 [Compound I-19] | > 10 | – | 1 to 5 | – | – | –
22 | CNc1c(C(=O)NCCc2ccc(N3C[C@H]4CC[C@@H](C3)N4)cc2)sc2nccc(C)c12 [Compound I-20] | 0.1 to 1 | – | 0.1 to 1 | – | – | –
23 | CNc1c(C(=O)NCCc2ccc(N3C[C@H]4CC[C@@H](C3)N4)cc2)sc2nccc(C(F)(F)F)c12 [Compound I-21] | 1 to 5 | – | 0.1 to 1 | – | – | –
24 | CNc1c(C(=O)NCCc2ccc(N3C[C@H]4CC[C@@H](C3)N4)cc2)sc2nc(CO)ccc12 [Compound I-22] | 0.1 to 1 | – | 0.1 to 1 | – | – | –
25 | CCNc1c(C(=O)NCCc2ccc(N3C[C@H]4CC[C@@H](C3)N4)cc2)sc2nc(C)ccc12 [Compound I-23] | 5 to 10 | – | 0.1 to 1 | – | – | –
26 | CCCNc1c(C(=O)NCCc2ccc(N3C[C@H]4CC[C@@H](C3)N4)cc2)sc2nc(C)ccc12 [Compound I-24] | > 10 | – | 0.1 to 1 | – | – | –
27 | Cc1ccc2c(NCCN(C)C)c(C(=O)NCCc3ccc(N4C[C@H]5CC[C@@H](C4)N5)cc3)sc2n1 [Compound I-25] | > 10 | – | 5 to 10 | – | – | –
